According to patent US11412737B2, “Mixtures of beflubutamid or optically enriched forms thereof with a second herbicide” (FMC Corporation, priority 2016, dated 2022):

Columns and labels:
[1] = test system: Common lambsquarters (CHEAL); experiment: pre-emergence test, weed control; assay type: in vivo, Chenopodium album; conditions: pre-emergent, 28 DAT; BFL at 125 g/ha, DCI at 125 g/ha, combination of both
Procedure, shortened: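 Steps: sow seed in furrows and cover with soil, water well, apply diluted compound over the soil surface (30 gallons per acre), move flats to the greenhouse. Evaluate each species at 28 DAT, wheat also at 21 DAT, as percent control versus untreated flats.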

[2] = test system: Annual bluegrass (POAAN); experiment: post-emergence test, weed control; assay type: in vivo, Poa annua; conditions: post-emergent, 28 DAT, height 1-2 cm; rate g ai/ha by row: r7 94, r8 125, r9 188, r10 125, r11 250, r12 94+125, r13 125+125, r14 188+125, r15 94+250, r16 125+250, r17 188+250
Procedure: (§1) Test compositions containing the test compounds were diluted with water to provide the appropriate test rate concentrations.
(§2) For post-emergence testing, seeds of each species for each rate of application of each herbicide solution were planted in 7.5 cm×7.5 cm plastic pots filled with potting soil. The seeds were germinated and the resulting plants were allowed to grow in a greenhouse until they reached a growth stage, such as height, suitable for testing. Treatments were applied using compressed air in a track spray chamber at 30 gallons/acre (280 L/ha) using a TeeJet 8001E nozzle at 40 psi (2.76 bars). Pots of post-emergent treated plants were returned to the greenhouse and not watered for 24 hours after treatment. Thereafter they were regularly watered and fertilized for the duration of the test.
(§3) The control of weeds was evaluated in each experimental test at 21 for wheat and 28 days after treatment (DAT) for all species. Data were analyzed using Minitab software at 95% confidence interval. The results, shown as an average of the replications, were compared with results observed in untreated control flats in the same tests. Percent control was determined by a method similar to the 0 to 100 rating system disclosed in “Research Methods in Weed Science,” 2nd ed., B. Truelove, Ed.; Southern Weed Science Society; Auburn University, Auburn, Ala., 1977. The rating system is as follows in Table 1.

[3] = test system: Green foxtail (SETVI); experiment: post-emergence test, weed control; assay type: in vivo, Setaria viridis; conditions: post-emergent, 28 DAT, height 4-5 cm, rate g ai/ha by row: r7 94, r8 125, r9 188, r10 125, r11 250, r12 94+125, r13 125+125, r14 188+125, r15 94+250, r16 125+250, r17 188+250
[4] = test system: Littleseed canarygrass (PHAMI); experiment: post-emergence test, weed control; assay type: in vivo, Phalaris minor; conditions: post-emergent, 28 DAT, height 7-8 cm, rate g ai/ha by row: r25 94, r26 125, r27 188, r28 125, r29 250, r30 94+125, r31 125+125, r32 188+125, r33 94+250, r34 125+250, r35 188+250
Procedure: as §1, §2, §3

[5] = test system: Cheat grass (BROSE); experiment: post-emergence test, weed control; assay type: in vivo; conditions: post-emergent, 28 DAT, height 7 cm; rate g ai/ha by row: r7 94, r8 125, r9 188, r10 125, r11 250, r12 94+125, r13 125+125, r14 188+125, r15 94+250, r16 125+250, r17 188+250
Procedure: as §1, §2, §3

[6] = test system: Common ragweed (AMBEL); experiment: post-emergence test, weed control; assay type: in vivo; conditions: post-emergent, 28 DAT, height 3-4 cm, rate g ai/ha by row: r7 94, r8 125, r9 188, r10 125, r11 250, r12 94+125, r13 125+125, r14 188+125, r15 94+250, r16 125+250, r17 188+250
Procedure: as §1, §2, §3

[7] = test system: Large crabgrass (DIGSA); experiment: post-emergence test, weed control; assay type: in vivo; conditions: post-emergent, 28 DAT; for percentage of weed control, DIGSA: height 3-5 cm, rate g ai/ha by row: r25 94, r26 125, r27 188, r28 125, r29 250, r30 94+125, r31 125+125, r32 188+125, r33 94+250, r34 125+250, r35 188+250
Procedure: as §1, §2, §3

[8] = test system: Redrice (ORYSA); experiment: post-emergence test, weed control; assay type: in vivo; conditions: post-emergent, 28 DAT, height 8 cm, rate g ai/ha by row: r25 94, r26 125, r27 188, r28 125, r29 250, r30 94+125, r31 125+125, r32 188+125, r33 94+250, r34 125+250, r35 188+250
Procedure: as §1, §2, §3

[9] = test system: Rice flatsedge (CYPIR); experiment: post-emergence test, weed control; assay type: in vivo; conditions: post-emergent, 28 DAT, height 1-2 cm; rate g ai/ha by row: r25 94, r26 125, r27 188, r28 125, r29 250, r30 94+125, r31 125+125, r32 188+125, r33 94+250, r34 125+250, r35 188+250
Procedure: as §1, §2, §3

[10] = test system: Shattercane (SOBIA); experiment: post-emergence test, weed control; assay type: in vivo; conditions: post-emergent, 28 DAT, height 8 cm, rate g ai/ha by row: r25 94, r26 125, r27 188, r28 125, r29 250, r30 94+125, r31 125+125, r32 188+125, r33 94+250, r34 125+250, r35 188+250
Procedure: as §1, §2, §3

[11] = test system: Silky windgrass (APSEV); experiment: post-emergence test, weed control; assay type: in vivo; conditions: post-emergent, 28 DAT, height 1-1.5 cm, rate g ai/ha by row: r25 94, r26 125, r27 188, r28 125, r29 250, r30 94+125, r31 125+125, r32 188+125, r33 94+250, r34 125+250, r35 188+250

For `CC1(C)CON(Cc2ccc(Cl)cc2Cl)C1=O` [DCI, 2-(2,4-dichlorophenyl)methyl-4,4-dimethyl-3-isoxazolidinone], the “control of lambsquarters (CHEAL)” value [1] was 24%, the “percentage of weed control, POAAN” value [2] was 0% and the “percentage of weed control, SETVI” value ([3]; 125 g ai/ha) was 6%. The “percentage of weed control, SETVI” value ([3]; 250 g ai/ha) was 5%, the “percentage of weed control, PHAMI” value ([4]; 125 g ai/ha) was 4% and the “percentage of weed control, PHAMI” value ([4]; 250 g ai/ha) was 2%. The “percentage of weed control, BROSE” value [5] was 0%, the “percentage of weed control, AMBEL” value ([6]; 125 g ai/ha) was 73% and the “percentage of weed control, AMBEL” value ([6]; 250 g ai/ha) was 77%. The “percentage of weed control, DIGSA” value ([7]; 125 g ai/ha) was 17%, the “percentage of weed control, DIGSA” value ([7]; 250 g ai/ha) was 22% and the “control of large crabgrass (DIGSA)” value ([7]; BFL at 188 g/ha, DCI at 125 g/ha, combination of both) was 17%. The “percentage of weed control, ORYSA” value ([8]; 125 g ai/ha) was 26%, the “percentage of weed control, ORYSA” value ([8]; 250 g ai/ha) was 42% and the “percentage of weed control, CYPIR” value [9] was 0%. For the same compound, the “percentage of weed control, SOBIA” value ([10]; 125 g ai/ha) was 1%, the “percentage of weed control, SOBIA” value ([10]; 250 g ai/ha) was 4% and the “percentage of weed control, APSEV” value ([11]; 125 g ai/ha) was 5%. For the same compound, the “percentage of weed control, APSEV” value ([11]; 250 g ai/ha) was 0%.
